ChEMBL document CHEMBL1201862, “PubChem BioAssay data set” (2004)
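A five-concentration, 48-hour dose response in 96-well plates underlies each endpoint, interpolated linearly between surrounding concentrations. Here, GI50 denotes the concentration required for 50% inhibition of growth.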 Active and inactive are the calls of the source. No stated cut-off is given here; in the data, active = GI50 up to about 1.1 µM and inactive = higher.

Experiments:
Assay in all cases: NCI anticancer screen, dose series, 48 h
HL-60 = tested on: HL-60
OVCAR-3 = tested on: OVCAR-3
ACHN = tested on: ACHN
KM12 = tested on: KM12
Hs-578T = tested on: Hs-578T
NCI/ADR-RES = tested on: NCI/ADR-RES
A549 = tested on: A549
SK-MEL-2 = tested on: SK-MEL-2
CCRF-CEM = tested on: CCRF-CEM
SW-620 = tested on: SW-620
PC-3 = tested on: PC-3
U-251 = tested on: U-251
MOLT-4 = tested on: MOLT-4
SN12C = tested on: SN12C
A498 = tested on: A498
HCC 2998 = tested on: HCC 2998
OVCAR-5 = tested on: OVCAR-5
MDA-MB-435 = tested on: MDA-MB-435
EKVX = tested on: EKVX
T47D = tested on: T47D

SMILES	GI50 (HL-60)	GI50 (OVCAR-3)	GI50 (ACHN)	GI50 (KM12)	GI50 (Hs-578T)	GI50 (NCI/ADR-RES)	GI50 (A549)	GI50 (SK-MEL-2)	GI50 (CCRF-CEM)	GI50 (SW-620)	GI50 (PC-3)	GI50 (U-251)	GI50 (MOLT-4)	GI50 (SN12C)	GI50 (A498)	GI50 (HCC 2998)	GI50 (OVCAR-5)	GI50 (MDA-MB-435)	GI50 (EKVX)	GI50 (T47D)
COc1ccc2nc3cc(Cl)ccc3c(NCCCCCC(=O)NC(COc3cnc4c(ccc5cccnc54)c3)COc3cnc4c(ccc5cccnc54)c3)c2c1	3.44 µM (inactive)	4.02 µM (inactive)	36.6 µM (inactive)	5.92 µM (inactive)	50.8 µM (inactive)	> 100 µM (inactive)	29.1 µM (inactive)	14.1 µM (inactive)	1.99 µM (inactive)	10.5 µM (inactive)	13.9 µM (inactive)	8.53 µM (inactive)	1.65 µM (inactive)	22.9 µM (inactive)	23.2 µM (inactive)	12.6 µM (inactive)	24.1 µM (inactive)	18.5 µM (inactive)	22.8 µM (inactive)	7.29 µM (inactive)
CCc1nc(N)nc(N)c1-c1ccc(Cl)c([N+](=O)[O-])c1	0.053 µM (active)	8.05 µM (inactive)	0.1 µM (active)	0.535 µM (active)	28.1 µM (inactive)	0.334 µM (active)	0.0218 µM (active)	17.9 µM (inactive)	0.0557 µM (active)	0.0475 µM (active)	0.0897 µM (active)	0.126 µM (active)	0.258 µM (active)	1.79 µM (inactive)	2.49 µM (inactive)	2.95 µM (inactive)	6.11 µM (inactive)	0.0752 µM (active)	3.38 µM (inactive)	10.5 µM (inactive)
C=C(C(=O)O[C@H]1C/C(C)=C/CC/C(CO)=C/[C@H]2C(=O)OC(=C)[C@H]12)C(O)CO (stereo not given in full)	2.49 µM (inactive)	6.76 µM (inactive)	12.3 µM (inactive)	20.4 µM (inactive)	23.5 µM (inactive)	19.8 µM (inactive)	22.9 µM (inactive)	15.6 µM (inactive)	1.67 µM (inactive)	3.71 µM (inactive)	9.77 µM (inactive)	12.1 µM (inactive)	5.37 µM (inactive)	15.3 µM (inactive)	18.5 µM (inactive)	16.4 µM (inactive)	17.3 µM (inactive)	9.59 µM (inactive)	17.3 µM (inactive)	3.75 µM (inactive)
O=[N+]([O-])c1ccc2c(c1)n1c(N3CCCC3)[n+]3ccccc3c1c1c3ccccn3c(N3CCCC3)[n+]21.[O-][Cl+3]([O-])([O-])[O-].[O-][Cl+3]([O-])([O-])[O-]	32 µM (inactive)	> 100 µM (inactive)	10 µM (inactive)	> 100 µM (inactive)	83.2 µM (inactive)	> 100 µM (inactive)	> 100 µM (inactive)	> 100 µM (inactive)	21.1 µM (inactive)	65.9 µM (inactive)	> 100 µM (inactive)	36.7 µM (inactive)	43.2 µM (inactive)	51.8 µM (inactive)	> 100 µM (inactive)	> 100 µM (inactive)	> 100 µM (inactive)	> 100 µM (inactive)	> 100 µM (inactive)	> 100 µM (inactive)
CC(NC1=NCCO1)c1ccccc1Cl (stereo not given)	> 100 µM (inactive)	> 100 µM (inactive)	> 100 µM (inactive)	> 100 µM (inactive)	> 100 µM (inactive)	> 100 µM (inactive)	> 100 µM (inactive)	> 100 µM (inactive)	> 100 µM (inactive)	> 100 µM (inactive)	91 µM (inactive)	> 100 µM (inactive)	91.8 µM (inactive)	> 100 µM (inactive)	> 100 µM (inactive)	> 100 µM (inactive)	> 100 µM (inactive)	> 100 µM (inactive)	> 100 µM (inactive)	> 100 µM (inactive)
[N-]=[N+]=Nc1c(-c2ccccc2)c(Cl)nc2ccccc12	56.2 µM (inactive)	44.6 µM (inactive)	19.6 µM (inactive)	19.1 µM (inactive)	44.2 µM (inactive)	34.8 µM (inactive)	29.9 µM (inactive)	58.3 µM (inactive)	> 100 µM (inactive)	35.4 µM (inactive)	26.2 µM (inactive)	48 µM (inactive)	51.4 µM (inactive)	32.5 µM (inactive)	27.5 µM (inactive)	44.2 µM (inactive)	> 100 µM (inactive)	38.3 µM (inactive)	33 µM (inactive)	41 µM (inactive)
Cc1ccc2c(O)cc(-c3ccc(C)s3)nc2n1	0.0775 µM (active)	0.34 µM (active)	0.731 µM (active)	0.0912 µM (active)	0.297 µM (active)	0.129 µM (active)	0.531 µM (active)	59.3 µM (inactive)	0.276 µM (active)	0.106 µM (active)	0.234 µM (active)	0.413 µM (active)	0.624 µM (active)	0.556 µM (active)	0.762 µM (active)	0.805 µM (active)	1.91 µM (inactive)	0.0264 µM (active)	2.95 µM (inactive)	0.506 µM (active)
OCC1OC(O[C@H]2CN3[C@H](O)[C@@H](O)[C@H](O)[C@H]3C2O)C(O)C(O)C1O (stereo not given in full)	> 100 µM (inactive)	> 100 µM (inactive)	> 100 µM (inactive)	> 100 µM (inactive)	> 100 µM (inactive)	> 100 µM (inactive)	> 100 µM (inactive)	> 100 µM (inactive)	> 100 µM (inactive)	> 100 µM (inactive)	> 100 µM (inactive)	> 100 µM (inactive)	> 100 µM (inactive)	> 100 µM (inactive)	> 100 µM (inactive)	> 100 µM (inactive)	> 100 µM (inactive)	> 100 µM (inactive)	> 100 µM (inactive)	> 100 µM (inactive)
CCO/C=N/NC(=O)CSc1nc2ccc(I)cc2c(=O)n1Cc1ccccc1	> 100 µM (inactive)	60 µM (inactive)	> 100 µM (inactive)	46.9 µM (inactive)	34.6 µM (inactive)	> 100 µM (inactive)	> 100 µM (inactive)	21.7 µM (inactive)	23 µM (inactive)	46.2 µM (inactive)	43.9 µM (inactive)	35.9 µM (inactive)	28.5 µM (inactive)	84.5 µM (inactive)	84.5 µM (inactive)	43.5 µM (inactive)	> 100 µM (inactive)	38.7 µM (inactive)	22.9 µM (inactive)	44.9 µM (inactive)
COC(=O)/C=C/c1ccc2c(c1)[C@H](C(=O)OC)[C@@H](c1ccc(O)cc1)O2	6.27 µM (inactive)	8.91 µM (inactive)	42.6 µM (inactive)	19 µM (inactive)	31.2 µM (inactive)	32.3 µM (inactive)	34.2 µM (inactive)	4.62 µM (inactive)	9.06 µM (inactive)	6.08 µM (inactive)	23.3 µM (inactive)	21.9 µM (inactive)	8.45 µM (inactive)	43.5 µM (inactive)	86.9 µM (inactive)	10.9 µM (inactive)	> 100 µM (inactive)	3.32 µM (inactive)	40 µM (inactive)	28.1 µM (inactive)
CC(=O)C1(c2ccccc2)CCN(Cn2sc3nc(C)cc(C)c3c2=O)CC1	18.7 µM (inactive)	37.5 µM (inactive)	17.8 µM (inactive)	> 100 µM (inactive)	30.4 µM (inactive)	32 µM (inactive)	64.7 µM (inactive)	44 µM (inactive)	10.5 µM (inactive)	24.4 µM (inactive)	37.6 µM (inactive)	42.3 µM (inactive)	27.7 µM (inactive)	21.4 µM (inactive)	78.2 µM (inactive)	25 µM (inactive)	19.5 µM (inactive)	23.1 µM (inactive)	23.3 µM (inactive)	55.6 µM (inactive)
CNC(=O)OCc1c(COC(=O)NC)c(-c2ccc(-c3ccccc3)cc2)n(C)c1C	0.351 µM (active)	2.54 µM (inactive)	0.493 µM (active)	8.04 µM (inactive)	11 µM (inactive)	2.64 µM (inactive)	1.9 µM (inactive)	0.494 µM (active)	0.502 µM (active)	5.48 µM (inactive)	2.52 µM (inactive)	1.92 µM (inactive)	0.299 µM (active)	0.726 µM (active)	0.504 µM (active)	2.82 µM (inactive)	2.35 µM (inactive)	5.41 µM (inactive)	2.44 µM (inactive)	2.39 µM (inactive)
Nc1nc(Cl)cc(NCC2(CO)CC(OCc3ccccc3)C2)n1 (stereo not given)	27.3 µM (inactive)	49.2 µM (inactive)	> 100 µM (inactive)	> 100 µM (inactive)	> 100 µM (inactive)	36.1 µM (inactive)	54.8 µM (inactive)	> 100 µM (inactive)	> 100 µM (inactive)	> 100 µM (inactive)	> 100 µM (inactive)	90.4 µM (inactive)	> 10 µM (inactive)	> 100 µM (inactive)	16.9 µM (inactive)	> 100 µM (inactive)	> 100 µM (inactive)	43.6 µM (inactive)	7.82 µM (inactive)	2.94 µM (inactive)
CC(C)NC(=O)OCc1c(COC(=O)NC(C)C)c(-c2ccc[n+](COC(=O)Cc3ccccc3)c2)n2c1CCC2	> 100 µM (inactive)	41 µM (inactive)	13.2 µM (inactive)	> 100 µM (inactive)	48.1 µM (inactive)	36.6 µM (inactive)	44.8 µM (inactive)	28.1 µM (inactive)	54.7 µM (inactive)	22.5 µM (inactive)	34 µM (inactive)	29.1 µM (inactive)	6.76 µM (inactive)	30.2 µM (inactive)	22.5 µM (inactive)	> 100 µM (inactive)	36.1 µM (inactive)	71.1 µM (inactive)	85.5 µM (inactive)	28.7 µM (inactive)
